Reference: PMC7479006, “Effect of high-fat diet on the pharmacokinetics and safety of flumatinib in healthy Chinese subjects” (Cancer Chemotherapy and Pharmacology, 2020)
Like-named read-outs stand apart in the source and are kept apart here.

Tests used:
[1] = set-up: method as in PMID 20703259; conditions: doses in the range of 200–1000 mg; cited from earlier work
[2] = Pharmacokinetics of flumatinib, M1 and M3 in plasma after a single oral 400 mg dose of flumatinib mesylate tablets, fasting vs high-fat diet (LC-MS/MS, non-compartmental); conditions: for AUC0-∞ LSGM ratio high-fat diet/fasting (%) (90% CI) / AUC0–t LSGM ratio high-fat diet/fasting (%) (90% CI) / Cmax LSGM ratio high-fat diet/fasting (%) (90% CI): N = 11, single oral 400 mg; for AUC(0-inf) / AUC(0-t) / Cmax / MRT / Tmax / half-life: human, po, 400 mg; for Tmax: Tmax median(range)
Description: The subjects were randomized 24 h in advance in one of the two following groups. Group A: at least 10 h after fasting, oral flumatinib administration of 400 mg (2 tablets, day 1, first dose); the washout period was 14 days, half an hour after high-fat diet (timed from the start of diet) oral flumatinib administration of 400 mg (2 tablets, day 15,second dose). Subjects in group B followed the opposite administration sequence from those in group A. In groups A and B, the high-fat diet contained 800 ~ 1000Kcal (about 50% from fat) (meal composition is detailed Table 1).
Blood samples for pharmacokinetic (PK) evaluation were collected at 0 h before the initiation of dosing (pre-dose), and at 0.5, 1, 1.5, 2, 2.5, 3, 4, 5, 6, 8, 10, 12, 24, 48, 72, and 96 h after dosing. Blood samples were centrifuged at 2000g for 10 min at 4 ℃. Centrifugation was completed within 60 min after sample collection. The plasma was stored at − 70 °C for further analysis. Plasma concentrations of flumatinib and its main metabolites (M1 and M3) were determined using liquid chromatography-mass spectrometry (LC–MS/MS) [20].
Phoenix WinNonlin Version 7.0 (Pharsight Corporation, Sunnyvale, CA, USA) software was used to calculate the pharmacokinetic parameters (Tmax, Cmax, AUC0–t, AUC0–∞, t1/2, V/F, CL/F) of flumatinib and its main metabolites using a non-compartmental method (NCA module). Linear Up Log Down trapezoidal method was used for AUC calculation. The BE module of WinNonLin was used to analyze AUC0–t, AUC0–∞, and Cmax of flumatinib in fed and fasting states after logarithmic conversion. The treatment group (fasting, high-fat diet), the treatment sequence (A, B), and treatment phase were fixed effects in the model, and the subjects nested in the sequence were random effects. The adjusted mean difference (fasting/high-fat diet) and its 90% confidence interval estimated by the model, were taken as the negative number to obtain the corresponding PK parameter geometric mean ratio (postprandial/fasting), to estimate its 90% confidence interval, and to evaluate the effect of a high-fat diet on the pharmacokinetics of flumatinib.

[3] = Biopharmaceutics Classification System (BCS) class; format: physicochemical; conditions: based on the BCS Guidance of the year 2000
[4] = beagles, oral administration, preclinical studies; cited from earlier work
[5] = rats, oral administration, preclinical studies; cited from earlier work
[6] = preclinical studies; tissue drug concentration higher than plasma concentration; cited from earlier work
[7] = Safety evaluation (adverse events, NCI CTCAE v4.03) after a single oral 400 mg dose of flumatinib mesylate; format: in vivo, human (healthy Chinese subjects); set-up: TEAE, Incidence rate / TEAE related to the study drug, Incidence rate / SAE related to the study drug, Incidence rate / TEAE related to death, Incidence rate / TEAE related to withdrawal, Incidence rate: unit not given here
Description: All subjects who participated in the study were included in the safety analysis. Safety was evaluated by vital signs, physical examination, ECG, laboratory examination, adverse events (AEs), and combined medication. All adverse events that occurred during the trial were classified into mild, moderate and severe levels based on NCI CTCAE v4.03.

[8] = Fasting (N = 11), mean ± SD, single oral 400 mg, listed as Flumatinib
[9] = High-fat diet (N = 12), mean ± SD, single oral 400 mg
[10] = High-fat diet (N = 12), mean ± SD, single oral 400 mg, listed as Flumatinib
[11] = Fasting, the first period (N = 6)
[12] = Fasting, the second period (N = 5)
[13] = High-fat diet, the first period (N = 6)
[14] = High-fat diet, the second period (N = 6)

Compound: Cc1ncc(NC(=O)c2ccc(CN3CCN(C)CC3)c(C(F)(F)F)c2)cc1Nc1nccc(-c2cccnc2)n1 [flumatinib]
- Dose relation of Cmax and AUC0–t [1]: linearly related to doses
- CL/F ([2]; Fasting (N = 11), mean ± SD, single oral 400 mg): 399 ± 229 L/h
- CL/F [2, 8]: 661 ± 380 L/h
- V/F [2, 8]: 11,700 ± 5130 L
- CL/F [2, 9]: 661 ± 380 L/h
- V/F [2, 9]: 11700 ± 5130 L
- CL/F [2, 10]: 399 ± 229 L/h
- V/F [2, 10]: 8470 ± 4130 L
- AUC0-∞ LSGM ratio high-fat diet/fasting (%) (90% CI) [2]: 166.87%
- AUC0–t LSGM ratio high-fat diet/fasting (%) (90% CI) [2]: 167.43%
- Cmax LSGM ratio high-fat diet/fasting (%) (90% CI) [2]: 281.65%
- AUC0-∞ LSGM ratio high-fat diet/fasting (%) (90% CI) ([2]; listed as Flumatinib): 167 (143, 194) %
- AUC0–t LSGM ratio high-fat diet/fasting (%) (90% CI) ([2]; listed as Flumatinib): 167 (144, 195) %
- Cmax LSGM ratio high-fat diet/fasting (%) (90% CI) ([2]; listed as Flumatinib): 282 (226, 351) %
- AUC(0-inf) ([2]; plasma, AUC0-∞ (least-square geometric mean), Fasting (N = 11), food-effect analysis, single oral 400 mg): 710 ng·h/mL
- AUC(0-inf) ([2]; plasma, AUC0-∞ (least-square geometric mean), High-fat diet (N = 11), food-effect analysis, single oral 400 mg): 1180 ng·h/mL
- AUC(0-inf) ([2]; plasma, AUC0-∞, Fasting (N = 11), mean ± SD, single oral 400 mg): 847 ± 572 ng·h/mL
- AUC(0-inf) ([2]; plasma, AUC0-∞, High-fat diet (N = 12), mean ± SD, single oral 400 mg): 1280 ± 586 ng·h/mL
- AUC(0-t) ([2]; plasma, AUC0–t (least-square geometric mean), Fasting (N = 11), food-effect analysis, single oral 400 mg): 696 ng·h/mL
- AUC(0-t) ([2]; plasma, AUC0–t (least-square geometric mean), High-fat diet (N = 11), food-effect analysis, single oral 400 mg): 1170 ng·h/mL
- AUC(0-t) ([2]; plasma, AUC0–t, Fasting (N = 11), mean ± SD, single oral 400 mg): 832 ± 566 ng·h/mL
- AUC(0-t) ([2]; plasma, AUC0–t, High-fat diet (N = 12), mean ± SD, single oral 400 mg): 1260 ± 582 ng·h/mL
- Cmax ([2]; plasma, Cmax (least-square geometric mean), Fasting (N = 11), food-effect analysis, single oral 400 mg): 43.7 ng/mL
- Cmax ([2]; plasma, Cmax (least-square geometric mean), High-fat diet (N = 11), food-effect analysis, single oral 400 mg): 123 ng/mL
- Cmax ([2]; plasma, Cmax, Fasting (N = 11), mean ± SD, single oral 400 mg): 50.7 ± 32.5 ng/mL
- Cmax ([2]; plasma, Cmax, High-fat diet (N = 12), mean ± SD, single oral 400 mg): 132 ± 54.5 ng/mL
- MRT ([2]; plasma, Fasting (N = 11), mean ± SD, single oral 400 mg): 17.2 ± 3.66 h
- MRT ([2]; plasma, High-fat diet (N = 12), mean ± SD, single oral 400 mg): 19.2 ± 3.37 h
- Tmax ([2]; plasma, Fasting (N = 11), single oral 400 mg): 2.5 h
- Tmax ([2]; plasma, High-fat diet (N = 12), single oral 400 mg): 3 h
- half-life ([2]; plasma, t1/2, Fasting (N = 11), mean ± SD, single oral 400 mg): 13.3 ± 2.52 h
- half-life ([2]; plasma, t1/2, High-fat diet (N = 12), mean ± SD, single oral 400 mg): 15.5 ± 4.67 h
- Increase in the exposure when taken with food ([2]; single oral 400 mg): 67%
- Increase of AUC0–∞ after high-fat diet over fasted state ([2]; single oral 400 mg, plasma): 1.6 fold
- Increase of Cmax after high-fat diet over fasted state ([2]; single oral 400 mg, plasma): nearly tripled
- BCS class [3]: BCS Class III
- Time to maximum blood concentration [4]: about 5 h
- Time to maximum blood concentration [5]: about 5 h
- Tissue distribution [6]: widely distributed in tissues
- SAE related to the study drug, Incidence rate [7, 11]: 0.0
- SAE related to the study drug, Number [7, 11]: 0
- SAE related to the study drug, Time [7, 11]: 0
- TEAE related to death, Incidence rate [7, 11]: 0.0
- TEAE related to death, Number [7, 11]: 0
- TEAE related to death, Time [7, 11]: 0
- TEAE related to the study drug, Incidence rate [7, 11]: 83.3
- TEAE related to the study drug, Number [7, 11]: 5
- TEAE related to the study drug, Time [7, 11]: 11
- TEAE related to withdrawal, Incidence rate [7, 11]: 0.0
- TEAE related to withdrawal, Number [7, 11]: 0
- TEAE related to withdrawal, Time [7, 11]: 0
- TEAE, Incidence rate [7, 11]: 100.0
- TEAE, Number [7, 11]: 6
- TEAE, Time [7, 11]: 14
- SAE related to the study drug, Incidence rate [7, 12]: 0.0
- SAE related to the study drug, Number [7, 12]: 0
- SAE related to the study drug, Time [7, 12]: 0
- TEAE related to death, Incidence rate [7, 12]: 0.0
- TEAE related to death, Number [7, 12]: 0
- TEAE related to death, Time [7, 12]: 0
- TEAE related to the study drug, Incidence rate [7, 12]: 60.0
- TEAE related to the study drug, Number [7, 12]: 3
- TEAE related to the study drug, Time [7, 12]: 4
- TEAE related to withdrawal, Incidence rate [7, 12]: 0.0
- TEAE related to withdrawal, Number [7, 12]: 0
- TEAE related to withdrawal, Time [7, 12]: 0
- TEAE, Incidence rate [7, 12]: 60.0
- TEAE, Number [7, 12]: 3
- TEAE, Time [7, 12]: 5
- SAE related to the study drug, Incidence rate ([7]; Fasting, total (N = 11)): 0.0
- SAE related to the study drug, Number ([7]; Fasting, total (N = 11)): 0
- SAE related to the study drug, Time ([7]; Fasting, total (N = 11)): 0
- TEAE related to death, Incidence rate ([7]; Fasting, total (N = 11)): 0.0
- TEAE related to death, Number ([7]; Fasting, total (N = 11)): 0
- TEAE related to death, Time ([7]; Fasting, total (N = 11)): 0
- TEAE related to the study drug, Incidence rate ([7]; Fasting, total (N = 11)): 72.7
- TEAE related to the study drug, Time ([7]; Fasting, total (N = 11)): 15
- TEAE related to withdrawal, Incidence rate ([7]; Fasting, total (N = 11)): 0.0
- TEAE related to withdrawal, Number ([7]; Fasting, total (N = 11)): 0
- TEAE related to withdrawal, Time ([7]; Fasting, total (N = 11)): 0
- TEAE, Incidence rate ([7]; Fasting, total (N = 11)): 81.8
- TEAE, Time ([7]; Fasting, total (N = 11)): 19
- SAE related to the study drug, Incidence rate [7, 13]: 0.0
- SAE related to the study drug, Number [7, 13]: 0
- SAE related to the study drug, Time [7, 13]: 0
- TEAE related to death, Incidence rate [7, 13]: 0.0
- TEAE related to death, Number [7, 13]: 0
- TEAE related to death, Time [7, 13]: 0
- TEAE related to the study drug, Incidence rate [7, 13]: 50.0
- TEAE related to the study drug, Number [7, 13]: 3
- TEAE related to the study drug, Time [7, 13]: 6
- TEAE related to withdrawal, Incidence rate [7, 13]: 16.7
- TEAE related to withdrawal, Number [7, 13]: 1
- TEAE related to withdrawal, Time [7, 13]: 1
- TEAE, Incidence rate [7, 13]: 100.0
- TEAE, Number [7, 13]: 6
- TEAE, Time [7, 13]: 18
- SAE related to the study drug, Incidence rate [7, 14]: 0.0
- SAE related to the study drug, Number [7, 14]: 0
- SAE related to the study drug, Time [7, 14]: 0
- TEAE related to death, Incidence rate [7, 14]: 0.0
- TEAE related to death, Number [7, 14]: 0
- TEAE related to death, Time [7, 14]: 0
- TEAE related to the study drug, Incidence rate [7, 14]: 66.7
- TEAE related to the study drug, Number [7, 14]: 4
- TEAE related to the study drug, Time [7, 14]: 6
- TEAE related to withdrawal, Incidence rate [7, 14]: 0.0
- TEAE related to withdrawal, Number [7, 14]: 0
- TEAE related to withdrawal, Time [7, 14]: 0
- TEAE, Incidence rate [7, 14]: 66.7
- TEAE, Number [7, 14]: 4
- TEAE, Time [7, 14]: 7
- SAE related to the study drug, Incidence rate ([7]; High-fat diet, total (N = 12)): 0.0
- SAE related to the study drug, Number ([7]; High-fat diet, total (N = 12)): 0
- SAE related to the study drug, Time ([7]; High-fat diet, total (N = 12)): 0
- TEAE related to death, Incidence rate ([7]; High-fat diet, total (N = 12)): 0.0
- TEAE related to death, Number ([7]; High-fat diet, total (N = 12)): 0
- TEAE related to death, Time ([7]; High-fat diet, total (N = 12)): 0
- TEAE related to the study drug, Incidence rate ([7]; High-fat diet, total (N = 12)): 58.3
- TEAE related to the study drug, Time ([7]; High-fat diet, total (N = 12)): 12
- TEAE related to withdrawal, Incidence rate ([7]; High-fat diet, total (N = 12)): 8.3
- TEAE related to withdrawal, Number ([7]; High-fat diet, total (N = 12)): 1
- TEAE related to withdrawal, Time ([7]; High-fat diet, total (N = 12)): 1
- TEAE, Incidence rate ([7]; High-fat diet, total (N = 12)): 83.3
- TEAE, Time ([7]; High-fat diet, total (N = 12)): 25
- TEAE incidence ([7]; fasting group): 81.8%
- TEAE related to the study drug, incidence ([7]; fasting group): 72.7%
- TEAE incidence ([7]; high-fat diet group): 83.3%
- TEAE related to the study drug, incidence ([7]; high-fat diet group): 58.3%
- Safety and tolerability ([7]; single oral dose of 400 mg, fasting or high-fat diet): safe and well tolerated
